# Laboratory results: US20260297542A1, “HERBICIDE RESISTANT PLANTS” (SYNGENTA CROP PROTECTION AG, priority 2023, published 2026)
# Positions count from the first letter of the chain named.
# Key:
# Test in all cases: E. coli hemG growth inhibition by herbicide, AtPPO1 variant
# Assay type in all cases: cell-based
# Settings in all cases: read-out: percentage growth inhibition
# AtPPO1 F478R = target: T1, AtPPO1 F478R (Arabidopsis thaliana, UniProt P55826, F478R)
# T1 construct: expressed in transfected cells; host or cells: E. coli BL21(DE3) hemG, pET24a plasmid
# T1 sequence (P55826 35-537 F478R): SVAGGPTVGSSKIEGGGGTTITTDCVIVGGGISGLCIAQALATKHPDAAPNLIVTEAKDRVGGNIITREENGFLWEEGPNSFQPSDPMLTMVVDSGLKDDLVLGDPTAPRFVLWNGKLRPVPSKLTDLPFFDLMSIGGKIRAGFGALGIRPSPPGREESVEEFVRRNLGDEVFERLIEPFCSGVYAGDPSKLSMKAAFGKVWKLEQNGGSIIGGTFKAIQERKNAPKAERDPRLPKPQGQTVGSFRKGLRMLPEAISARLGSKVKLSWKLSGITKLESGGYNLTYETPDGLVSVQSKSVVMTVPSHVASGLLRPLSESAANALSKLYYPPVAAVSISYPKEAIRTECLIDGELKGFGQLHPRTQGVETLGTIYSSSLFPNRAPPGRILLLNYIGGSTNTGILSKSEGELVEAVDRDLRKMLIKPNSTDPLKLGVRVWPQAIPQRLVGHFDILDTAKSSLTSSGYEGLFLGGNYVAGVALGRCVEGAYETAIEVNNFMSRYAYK
# Description: (§1) A pET24a plasmid containing a DNA sequence encoding a variant of PPO1 derived from Arabidopsis thaliana (AtPPO1), codon-optimised for expression in E. coli and under control of a T7 promoter, was synthesised by Twist Bioscience (SEQ ID NO:3). This plasmid was used as the basis of a Site Saturation Variant Library (SSVL) that substituted the codons at 352 amino acid positions for codons that encoded one of the other 19 amino acids, or removed the codon altogether, resulting in a translation product with a deletion at that position.
# (§2) The SSVL was batch-transformed by electroporation into an E. coli BL21(DE3) hemG strain with the hemG gene replaced by CmR conferring resistance to chloramphenicol and spread onto LA supplemented with 50 μg/mL kanamycin, 25 μg/mL chloramphenicol and 20 μg/mL hematin. Each batch consisted of all the plasmids that contained variants at two sites.
# (§3) Colonies from batch transformations were inoculated into 500 μL of Terrific broth supplemented with 50 μg/mL kanamycin, 25 μg/mL chloramphenicol and 20 μg/mL hematin in 96-deepwell blocks. Cultures were grown for 24 hours at 37° C. with shaking at 250 rpm.
# (§4) Overnight cultures were centrifuged and the cell pellets resuspended with 500 μL of Terrific broth. The resuspended cultures were used at a ratio of 1:100 to inoculate a fresh 96-deepwell block containing 500 μL of Terrific broth supplemented with 0.1 mM IPTG, 50 μg/mL kanamycin, 25 μg/mL chloramphenicol and 6.25 ppm of herbicide […] or E or 0.78 ppm herbicide B or DMSO. Assay cultures were grown for 24 hours at 37° C. with shaking at 250 rpm with the OD600 being measured at 24 hours post inoculation. Strains that grew in both DMSO and herbicide were determined to be herbicide tolerant with the percentage of growth inhibition being calculated as below: […]
# AtPPO1 K281C = target: T2, AtPPO1 K281C (Arabidopsis thaliana, UniProt P55826, K281C)
# T2 construct: expressed in transfected cells; host or cells: E. coli BL21(DE3) hemG (hemG replaced by CmR), pET24a plasmid
# T2 sequence (P55826 35-537 K281C): T1 sequence (P55826 35-537 F478R) with K247C, R444F
# Description: as §1, §2, §3, §4
# AtPPO1 E212Y = target: T3, AtPPO1 E212Y (Arabidopsis thaliana, UniProt P55826, E212Y)
# T3 construct: expressed in transfected cells; host or cells: E. coli BL21(DE3) hemG (hemG replaced by CmR), pET24a plasmid
# T3 sequence (P55826 35-537 E212Y): T1 sequence (P55826 35-537 F478R) with E178Y, R444F
# Description: as §1, §2, §3, §4
# AtPPO1 E111F = target: T4, AtPPO1 E111F (Arabidopsis thaliana, UniProt P55826, E111F)
# T4 construct: expressed in transfected cells; host or cells: E. coli BL21(DE3) hemG (hemG replaced by CmR), pET24a plasmid
# T4 sequence (P55826 35-537 E111F): T1 sequence (P55826 35-537 F478R) with E77F, R444F
# Description: as §1, §2, §3, §4
smiles,measurement,setting,value
"C#CCN1C(=O)C(F)(F)Oc2cc(F)c(-n3c(=O)n(C)c(=S)n(C)c3=O)cc21 [Herbicide B, trifludimoxazin]",inhibition at 0.78 ppm,AtPPO1 F478R,23%
same,inhibition at 0.78 ppm,AtPPO1 K281C,35%
same,inhibition at 0.78 ppm,AtPPO1 E212Y,25%
same,inhibition at 0.78 ppm,AtPPO1 E111F,27%
"CCOC(=O)[C@]1(C)CC(c2cc(-n3c(=O)n(C)c(=S)n(C)c3=O)c(F)cc2Cl)=NO1 [Herbicide D, ethyl (5S)-3-[2-chloro-5-(3,5-dimethyl-2,6-dioxo-4-thioxo-1,3,5-triazinan-1-yl)-4-fluoro-phenyl]-5-methyl-4H-isoxazole-5-carboxylate]",inhibition at 6.25 ppm,AtPPO1 F478R,30%
same,inhibition at 6.25 ppm,AtPPO1 K281C,33%
same,inhibition at 6.25 ppm,AtPPO1 E212Y,27%
same,inhibition at 6.25 ppm,AtPPO1 E111F,29%
"CC(C)N(C)S(=O)(=O)NC(=O)c1cc(-n2c(=O)cc(C(F)(F)F)n(C)c2=O)c(F)cc1Cl [Herbicide E, saflufenacil]",inhibition at 6.25 ppm,AtPPO1 F478R,61%
same,inhibition at 6.25 ppm,AtPPO1 K281C,54%
same,inhibition at 6.25 ppm,AtPPO1 E212Y,65%
same,inhibition at 6.25 ppm,AtPPO1 E111F,66%
